According to paper PMC9501983, “Transport and Permeation Properties of Dapivirine: Understanding Potential Drug-Drug Interactions” (Pharmaceutics, 2022):

Columns and labels:
MRP4 [1] = test system: MRP4; set-up: method as in PMID 26102284; settings: DPV at 10 μM; cited from earlier work
MRP4 [2] = target: T1, MRP4 (Homo sapiens, UniProt O15439); assay: in vitro
T1 sequence (O15439 1-1325): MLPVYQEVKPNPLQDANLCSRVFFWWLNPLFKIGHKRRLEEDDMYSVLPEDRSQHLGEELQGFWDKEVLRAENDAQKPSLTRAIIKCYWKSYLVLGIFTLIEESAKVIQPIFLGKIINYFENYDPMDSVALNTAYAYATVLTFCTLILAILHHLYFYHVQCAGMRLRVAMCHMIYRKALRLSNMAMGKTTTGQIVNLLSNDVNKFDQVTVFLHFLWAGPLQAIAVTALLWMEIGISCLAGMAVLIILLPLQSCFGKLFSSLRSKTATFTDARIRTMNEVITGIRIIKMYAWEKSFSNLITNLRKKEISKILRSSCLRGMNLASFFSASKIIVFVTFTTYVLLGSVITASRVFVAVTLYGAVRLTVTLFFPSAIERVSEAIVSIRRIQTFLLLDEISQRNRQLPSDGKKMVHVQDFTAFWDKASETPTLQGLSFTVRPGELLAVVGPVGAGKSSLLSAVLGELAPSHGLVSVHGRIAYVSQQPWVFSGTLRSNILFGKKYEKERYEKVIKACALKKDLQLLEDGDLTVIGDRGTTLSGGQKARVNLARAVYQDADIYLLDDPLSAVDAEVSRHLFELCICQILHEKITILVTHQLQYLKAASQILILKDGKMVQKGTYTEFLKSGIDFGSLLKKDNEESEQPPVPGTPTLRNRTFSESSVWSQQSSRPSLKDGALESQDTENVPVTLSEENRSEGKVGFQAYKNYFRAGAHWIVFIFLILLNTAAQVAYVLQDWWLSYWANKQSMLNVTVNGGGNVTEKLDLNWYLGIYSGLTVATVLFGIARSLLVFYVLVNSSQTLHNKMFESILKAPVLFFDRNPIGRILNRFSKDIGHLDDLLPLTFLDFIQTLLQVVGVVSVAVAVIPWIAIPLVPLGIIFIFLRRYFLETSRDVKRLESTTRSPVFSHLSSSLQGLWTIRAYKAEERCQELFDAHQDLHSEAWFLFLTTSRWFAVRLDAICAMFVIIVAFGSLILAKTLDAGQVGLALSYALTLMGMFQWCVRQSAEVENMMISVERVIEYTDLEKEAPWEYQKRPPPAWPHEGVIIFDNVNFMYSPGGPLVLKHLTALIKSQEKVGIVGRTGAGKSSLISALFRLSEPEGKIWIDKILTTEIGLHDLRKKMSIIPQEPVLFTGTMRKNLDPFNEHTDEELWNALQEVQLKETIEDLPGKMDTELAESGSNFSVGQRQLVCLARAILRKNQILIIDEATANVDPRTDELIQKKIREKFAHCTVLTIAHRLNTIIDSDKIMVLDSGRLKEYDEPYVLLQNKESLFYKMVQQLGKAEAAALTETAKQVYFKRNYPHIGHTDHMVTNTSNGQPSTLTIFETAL
Procedure: To investigate if DPV was a substrate or inhibitor of MRP1 or MRP4, ATP-dependent and independent uptake of DPV (in the substrate study) or estradiol 17 β-D-glucuronide (a known MRP1/MRP4 substrate in the inhibitor study) was measured using 50 μg MRP1, MRP4, and control vesicles. […] The uptake assay was performed at a total volume of 50 μL with either 4 mM ATP or AMP, 2 mM glutathione, 10 μM DPV or estradiol 17 β-D-glucuronide as substrates, with and without 20 μM DPV or MK571 as inhibitors. […] To quantify the uptake amount of DPV or estradiol 17 β-D-glucuronide, 4 μCi mL^−1 3H-DPV or ^3H- estradiol 17 β-D-glucuronide was added to the assay mixture.
The vesicular uptake assays were performed under the above-mentioned conditions. The membrane vesicles were first incubated with respective inhibitor solution or blank assay buffer. The reaction was then initiated by adding the remaining components of the assay mixture to the vesicles and incubated at 37 °C for 3 min. To terminate the reaction, 200 μL ice-cold buffer was added to each well. The samples were then transferred to a glass fiber filter plate and washed 5 times by rapid filtration using a vacuum manifold (IBI Scientific, Dubuque, IA, USA). To quantify ^3H-DPV and ^3H-estradiol 17 β-D-glucuronide uptake, the washed vesicles were lysed with scintillation cocktail at room temperature for 20 min. The collected samples were analyzed on an LS6500 liquid scintillation counter (Beckman Coulter, Brea, CA, USA).
If ATP-dependent uptake was observed, the uptake amount by active transport was calculated using Equation (1):(1) Normalized uptake=mean uptake with ATP−mean uptake with AMP

CYP3A4 = test system: CYP3A4; set-up: method as in PMID 34959473; settings: cited from earlier work
HEC-1-A cells = assay: Tight junction disruption, TEER of HEC-1-A monolayers in Ussing chamber; format: cell-based, human; settings: apical treatment in HBSS without Ca/Mg; DPV 5 μM, MIC 5 μM, combination 5 μM each, EGTA 2 mM
Procedure: HEC-1-A cells were seeded at a density of 9000 cells per cm^2 onto 0.4 μm permeable snapwell inserts (Corning Inc., Corning, NY, USA). […] Only monolayers displaying TEER values above the threshold indicating confluency (130 Ωcm^2) were considered qualified to be used in this study.
To evaluate tight junction disruption, qualified HEC-1-A cell monolayers were mounted onto the Ussing Chamber apparatus (Physiologic Instruments, San Diego, CA, USA) to monitor TEER values. After equilibrating cells with HBSS at 37 °C for 20 min, buffer in basolateral chambers was replaced with HBSS without calcium or magnesium (HBSS Ca^−&Mg^−), while buffer in the apical chambers was replaced with respective treatment solution in HBSS Ca^−&Mg^-. Treatments included 5 μM DPV, 5 μM MIC, and 5 μM DPV with 5 μM MIC. 2 mM EGTA, a known tight junction disruptor that decreases TEER, was used as the positive control and blank HBSS Ca^-&Mg^- was used as negative control. Cells were incubated at 37 °C for 80 min and the obtained TEER values were normalized against initial measurements at time 0.

Substrate status for MRP4 (MRP4 [2]): not a substrate
Normalized estradiol 17 β-D-glucuronide uptake by MRP4 vesicles co-incubated with inhibitor (MRP4 [2]; 10 μM substrate, 20 μM test inhibitor, ATP minus AMP): 14.08 fmol
Active uptake of estradiol 17 β-D-glucuronide by MRP4 vesicles, reduced to % of control (MRP4 [2]; 20 µM): not significantly affected
Relative TEER percentage of baseline value at 80 min (HEC-1-A cells): 94.7 ± 7.8%
Compound: Cc1cc(C)c(Nc2ccnc(Nc3ccc(C#N)cc3)n2)c(C)c1 [DPV, dapivirine]
Effect on MRP4 expression level (MRP4 [1]): downregulating
Substrate of CYP3A4 (CYP3A4): substrate
